Tests used:
[1] = target: Sigma non-opioid intracellular receptor 1 (Cavia porcellus, UniProt Q60492)
[2] = target: T1, Sigma intracellular receptor 2 (Rattus norvegicus, UniProt Q5U3Y7); assay: Displacement of [3H]di-O-tolylguanidine from sigma 2 receptor in rat liver membrane by competitive radioligand receptor binding assay; type: cell membranes
T1 sequence (Q5U3Y7 whole entry): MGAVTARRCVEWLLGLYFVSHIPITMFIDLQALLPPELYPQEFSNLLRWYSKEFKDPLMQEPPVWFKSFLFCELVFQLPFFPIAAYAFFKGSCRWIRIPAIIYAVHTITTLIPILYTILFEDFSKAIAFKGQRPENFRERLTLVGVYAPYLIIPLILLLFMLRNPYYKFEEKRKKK

Albumin = Albumin (Homo sapiens, UniProt P02768); assay: Protein binding in human serum albumin by HPAC analysis; type: ADME; conditions: read-out: PB (converted)
Sequence of Albumin (P02768 whole entry): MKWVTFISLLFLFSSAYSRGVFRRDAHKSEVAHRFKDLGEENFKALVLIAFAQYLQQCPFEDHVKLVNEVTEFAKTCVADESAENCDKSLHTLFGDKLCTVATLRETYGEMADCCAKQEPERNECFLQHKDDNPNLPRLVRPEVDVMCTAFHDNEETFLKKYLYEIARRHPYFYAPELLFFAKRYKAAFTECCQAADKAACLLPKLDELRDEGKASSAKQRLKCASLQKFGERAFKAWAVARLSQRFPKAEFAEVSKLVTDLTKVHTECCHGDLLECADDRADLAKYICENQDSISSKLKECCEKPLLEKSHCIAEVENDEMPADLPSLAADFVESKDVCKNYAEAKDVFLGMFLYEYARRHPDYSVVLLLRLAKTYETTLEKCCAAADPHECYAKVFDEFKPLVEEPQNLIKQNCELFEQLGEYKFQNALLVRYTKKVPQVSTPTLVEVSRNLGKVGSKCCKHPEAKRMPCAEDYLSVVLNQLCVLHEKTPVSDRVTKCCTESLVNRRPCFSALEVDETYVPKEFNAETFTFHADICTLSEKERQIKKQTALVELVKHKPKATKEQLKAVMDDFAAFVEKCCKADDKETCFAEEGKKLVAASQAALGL

[3] = Distribution coefficient between n-Octanol and aqueous buffer, logD of the compound in pH 7.4 buffer by LC/MS analysis; type: physicochemical
Mus musculus = assay: Antiallodynic activity in capsaicin-induced mechanical allodynia CD1 mouse model assessed as reduction in mechanical allodynia administered subcutaneously preincubated for 30 min followed by capsaicin injection and measured after 15 mins by Von Frey filament assay; type: functional, organism-based; conditions: dose 8-32 mg/kg, route sc, time 45.0 min, DDE = dose-dependent effect
[4] = Drug metabolism in mouse liver microsomes assessed as compound oxidization incubated for 90 mins in presence of NAPDH; type: ADME, Microsome; conditions: read-out: Drug metabolism

Sequence of Sigma non-opioid intracellular receptor 1 (Q60492 whole entry): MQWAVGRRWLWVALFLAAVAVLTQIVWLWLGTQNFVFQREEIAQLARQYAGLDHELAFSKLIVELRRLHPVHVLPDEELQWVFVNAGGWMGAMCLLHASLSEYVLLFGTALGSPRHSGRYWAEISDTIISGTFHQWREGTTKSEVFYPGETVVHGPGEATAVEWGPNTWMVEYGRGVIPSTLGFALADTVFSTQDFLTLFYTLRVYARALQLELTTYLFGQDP

Work on `O[C@@H](CN1[C@@H]2CC[C@H]1C/C(=C/c1ccc(F)cc1)C2)c1ccccc1` yielded a Ki [1] of 18 nM and a Ki [2] of 29 nM.
Work on `O[C@H](CN1[C@@H]2CC[C@H]1C/C(=C\c1ccc(F)cc1)C2)c1ccccc1` yielded a Ki [1] of 6.6 nM and a Ki [2] of 27 nM.
With `O[C@@H](CN1[C@@H]2CC[C@H]1C/C(=C\c1ccc(F)cc1)C2)c1ccccc1` the fraction unbound (Albumin) was 0.05, the logD [3] was 3.06 and the Ki [1] was 0.8 nM. The Ki [2] was 10 nM, the Activity (Mus musculus) was “Dde” and the metabolised at 1.5 h [4] was 32%.
For `O[C@H](CN1[C@@H]2CC[C@H]1C/C(=C/c1ccc(F)cc1)C2)c1ccccc1`, the Ki [1] was 0.45 nM and the Ki [2] was 11 nM.
`OC(CN1CCC(Cc2ccc(F)cc2)CC1)c1ccc(Cl)cc1` (centres undefined) [ELIPRODIL] showed a Ki [1] of 94 nM and a Ki [2] of 71 nM.

— ChEMBL document CHEMBL5154708, “Synthesis of tropane-based σ1 receptor antagonists with antiallodynic activity” (Eur J Med Chem, 2022)
